Data as given in patent publication US9085603B2, “Progesterone receptor antagonists” (Bayer Intellectual Property GmbH, priority 2010, dated 2015).

Tests used:
[1] = molecular target: T1, human progesterone receptor B (Homo sapiens, UniProt P06401); experiment: Progesterone receptor antagonistic effect in stably transfected SK-N-MC cells, MTV-LUC reporter (PR-B); format: cell-based; details: antagonism of 0.1 nmol/l promegestone, luciferase reporter, 24 hours
T1 construct: expressed in transfected cells; host or cells: SK-N-MC human neuroblastoma cells, stably transfected with pRChPR-B-neo and pMMTV-LUC
T1 sequence (P06401 1-933): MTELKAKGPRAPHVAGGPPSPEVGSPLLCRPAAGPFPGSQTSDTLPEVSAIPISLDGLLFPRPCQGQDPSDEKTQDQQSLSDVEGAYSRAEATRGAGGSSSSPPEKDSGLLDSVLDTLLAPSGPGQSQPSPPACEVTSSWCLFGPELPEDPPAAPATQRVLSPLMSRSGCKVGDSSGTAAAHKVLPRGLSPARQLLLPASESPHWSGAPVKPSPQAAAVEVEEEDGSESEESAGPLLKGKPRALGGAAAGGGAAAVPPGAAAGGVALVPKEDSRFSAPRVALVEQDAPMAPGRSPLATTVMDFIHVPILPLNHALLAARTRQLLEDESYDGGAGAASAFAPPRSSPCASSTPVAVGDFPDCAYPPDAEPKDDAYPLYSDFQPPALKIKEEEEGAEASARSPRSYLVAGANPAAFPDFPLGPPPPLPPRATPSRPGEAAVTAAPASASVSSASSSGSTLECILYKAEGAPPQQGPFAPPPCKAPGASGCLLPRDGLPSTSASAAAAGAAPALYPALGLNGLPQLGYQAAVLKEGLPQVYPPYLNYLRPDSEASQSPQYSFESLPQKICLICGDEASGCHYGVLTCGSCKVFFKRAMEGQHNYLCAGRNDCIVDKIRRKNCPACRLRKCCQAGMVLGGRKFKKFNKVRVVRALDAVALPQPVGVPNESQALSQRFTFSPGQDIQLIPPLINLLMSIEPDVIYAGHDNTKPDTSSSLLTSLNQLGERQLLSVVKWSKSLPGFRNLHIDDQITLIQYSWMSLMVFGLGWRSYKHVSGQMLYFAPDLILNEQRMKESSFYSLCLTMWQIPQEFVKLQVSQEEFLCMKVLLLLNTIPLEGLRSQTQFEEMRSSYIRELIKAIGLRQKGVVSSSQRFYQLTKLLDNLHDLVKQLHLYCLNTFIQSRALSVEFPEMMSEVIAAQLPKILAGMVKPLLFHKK
Method: (§1) Progesterone Receptor Antagonistic Effect in Stable Transfectants of Human Neuroblastoma Cells (SK-N-MC cells) with the Human Progesterone A or Progesterone B Receptor and a MTV-LUC Reporter Construct
(§2) SK-N-MC cells (human neuroblastoma cells), which have been stably transfected with plasmids which express the human progesterone receptor B (pRChPR-B-neo) or the human progesterone receptor A (pRChPR-A-neo) and a reporter construct (pMMTV-LUC), were incubated for 24 hours either in the absence (negative control) or in the presence of increasing amounts of the particular test compound (0.01 nmol/l, 0.1 nmol/l, 1 nmol/l, 10 nmol/l, 100 nmol/l and 1 μmol/l) in order to determine the agonistic efficacy. As a positive control of the reporter gene induction, the cells were treated with the synthetic gestagen promegestone (0.01 nmol/l, 0.1 nmol/l, 1 nmol/l, 10 nmol/l, 100 nmol/l and 1 μmol/l). To determine the antagonistic activity, the cells were treated with 0.1 nmol/l of promegestone and additionally with increasing amounts of the particular test compound (0.01 nmol/l, 0.1 nmol/l, 1 nmol/l, 10 nmol/l, 100 nmol/l and 1 μmol/l). The activity of the reporter gene LUC (LUC=luciferase) was determined in the cell lysates and measured as RLU (relative light units). All measurement values are given as percentage efficacy and as EC50 or IC50 concentrations.

[2] = molecular target: T2, human progesterone receptor A (Homo sapiens, UniProt P06401); experiment: Progesterone receptor antagonistic effect in stably transfected SK-N-MC cells, MTV-LUC reporter (PR-A); format: cell-based; details: antagonism of 0.1 nmol/l promegestone, luciferase reporter, 24 hours
T2 construct: expressed in transfected cells; host or cells: SK-N-MC human neuroblastoma cells, stably transfected with pRChPR-A-neo and pMMTV-LUC
T2 sequence (P06401 1-769 isoform P06401-2): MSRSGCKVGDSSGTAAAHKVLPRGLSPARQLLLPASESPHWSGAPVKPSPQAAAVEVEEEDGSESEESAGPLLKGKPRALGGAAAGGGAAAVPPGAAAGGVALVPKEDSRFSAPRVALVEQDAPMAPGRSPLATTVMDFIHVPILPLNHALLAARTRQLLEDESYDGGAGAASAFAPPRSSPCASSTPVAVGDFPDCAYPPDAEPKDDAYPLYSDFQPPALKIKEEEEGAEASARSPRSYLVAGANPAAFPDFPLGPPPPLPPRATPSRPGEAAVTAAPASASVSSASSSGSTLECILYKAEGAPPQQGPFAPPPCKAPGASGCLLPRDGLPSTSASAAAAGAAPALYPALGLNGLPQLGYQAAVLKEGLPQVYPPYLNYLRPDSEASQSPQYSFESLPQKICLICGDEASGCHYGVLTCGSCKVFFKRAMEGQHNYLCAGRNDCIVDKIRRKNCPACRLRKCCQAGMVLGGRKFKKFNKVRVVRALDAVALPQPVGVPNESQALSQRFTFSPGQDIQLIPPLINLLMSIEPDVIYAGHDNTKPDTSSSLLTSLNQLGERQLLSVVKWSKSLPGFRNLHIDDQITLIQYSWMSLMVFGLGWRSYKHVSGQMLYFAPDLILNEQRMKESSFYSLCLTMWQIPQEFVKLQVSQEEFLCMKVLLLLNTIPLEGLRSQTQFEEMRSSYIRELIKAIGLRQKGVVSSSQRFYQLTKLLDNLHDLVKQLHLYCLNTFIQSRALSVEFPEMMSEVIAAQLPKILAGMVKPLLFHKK
Method: as §1, §2

pregnant rats = experiment: Abortive test on female rats (termination of early pregnancy); format: in vivo, rat; details: for Abortion rate: d5-d7 p.c., autopsy d9 p.c.
Method: The antagonistic effect of the compounds according to the invention was tested on pregnant rats (6 rats per group) on day (d) 5 to 7 post coitum (p.c.) under conventional keeping and feeding conditions.
After successful pairing, the pregnant animals (presence of sperm in the vaginal smear on day 1 of the pregnancy=d1 p.c.) were randomized and divided into the treatment group and the control group. The animals were then given, subcutaneously or orally, in each case 0.15; 0.5; 1.5 or 5 mg/kg of the test compound or […] of vehicle (benzyl benzoate/ricinus oil: 1+4 [v/v]) daily from day 5 to day 7 (d5-d7 p.c.).
The autopsy was carried out on day 9 (d9 p.c.). As the parameter of the progesterone receptor antagonistic effect, the uterus was investigated with regard to the presence of nidation sites. Here, the complete lack of nidation sites, but also the presence of pathological, haemmorhagic or otherwise abnormal nidation sites, on day 9 (d9 p.c.) was evaluated as an abortion.

Structure (SMILES)	IC50 [1] [nM]	IC50 [2] [nM]	Abortion rate (pregnant rats; daily dose 0.5 mg/kg p.o.) [%]	Abortion rate (pregnant rats; daily dose 1.5 mg/kg p.o.) [%]	Abortion rate (pregnant rats; daily dose 5.0 mg/kg p.o.) [%]	In vivo properties in preclinical tests (pregnant rats; preclinical tests, not further specified)
CC(C)(C)OC(=O)N1CCN(Cc2ccc([C@H]3C[C@@]4(C)[C@@H](CC[C@@]4(O)C(F)(F)C(F)(F)F)[C@@H]4CCC5=CC(=O)CCC5=C43)cc2)CC1 [Example 3, tert-Butyl 4-{4-[(11β,17β)-17-hydroxy-3-oxo-17-(pentafluoroethyl)estra-4,9-dien-11-yl]benzyl}piperazine-1-carboxylate]	0.15	0.11	–	–	–	–
C[C@]12C[C@H](c3ccc(CN4CCCCC4)cc3)C3=C4CCC(=O)C=C4CC[C@H]3[C@@H]1CC[C@@]2(O)C(F)(F)C(F)(F)F [Example 4, (11β,17β)-17-Hydroxy-17-(pentafluoroethyl)-11-[4-(piperidin-1-ylmethyl)phenyl]estra-4,9-dien-3-one]	2.1	1.4	–	–	–	–
COC(=O)C1CCN(Cc2ccc([C@H]3C[C@@]4(C)[C@@H](CC[C@@]4(O)C(F)(F)C(F)(F)F)[C@@H]4CCC5=CC(=O)CCC5=C43)cc2)CC1 [Example 5, Methyl 1-{4-[(11β,17β)-17-hydroxy-3-oxo-17-(pentafluoroethyl)estra-4,9-dien-11-yl]benzyl}piperidine-4-carboxylate]	0.99	1.2	–	–	–	–
CC(C)(C)OC(=O)N1CCCN(Cc2ccc([C@H]3C[C@@]4(C)[C@@H](CC[C@@]4(O)C(F)(F)C(F)(F)F)[C@@H]4CCC5=CC(=O)CCC5=C43)cc2)CC1 [Example 6, tert-Butyl 4-{4-[(11β,17β)-17-hydroxy-3-oxo-17-(pentafluoroethyl)estra-4,9-dien-11-yl]benzyl}-1,4-diazepane-1-carboxylate]	0.3	0.33	–	–	–	–
C[C@]12C[C@H](c3ccc(CN4CCOCC4)cc3)C3=C4CCC(=O)C=C4CC[C@H]3[C@@H]1CC[C@@]2(O)C(F)(F)C(F)(F)F [Example 7, (11β,17β)-17-Hydroxy-11-[4-(morpholin-4-ylmethyl)phenyl]-17-(pentafluoroethyl)estra-4,9-dien-3-one]	0.1	0.1	–	–	–	–
C[C@]12C[C@H](c3ccc(CN4CCS(=O)(=O)CC4)cc3)C3=C4CCC(=O)C=C4CCC3C1CC[C@@]2(O)C(F)(F)C(F)(F)F (stereo partly drawn) [Example 8, (11β,17β)-11-{4-[(1,1-Dioxidothiomorpholin-4-yl)methyl]phenyl}-17-hydroxy-17-(pentafluoroethyl)estra-4,9-dien-3-one]	0.3	0.1	–	–	–	–
C[C@]12C[C@H](c3ccc(CNCCc4ccccc4)cc3)C3=C4CCC(=O)C=C4CC[C@H]3[C@@H]1CC[C@@]2(O)C(F)(F)C(F)(F)F [Example 9, (11β,17β)-17-Hydroxy-17-(pentafluoroethyl)-11-(4-{[(2-phenylethyl)amino]methyl}phenyl)estra-4,9-dien-3-one]	0.98	1.3	–	–	–	–
C[C@]12C[C@H](c3ccc(CN4CCNCC4)cc3)C3=C4CCC(=O)C=C4CC[C@H]3[C@@H]1CC[C@@]2(O)C(F)(F)C(F)(F)F [Example 10, (11β,17β)-17-Hydroxy-17-(pentafluoroethyl)-11-[4-(piperazin-1-yl-methyl)phenyl]estra-4,9-dien-3-one]	0.12	0.88	–	–	–	–
CC(=O)N1CCN(Cc2ccc([C@H]3C[C@@]4(C)C(CC[C@@]4(O)C(F)(F)C(F)(F)F)C4CCC5=CC(=O)CCC5=C43)cc2)CC1 (stereo partly drawn) [Example 11, (11β,17β)-11-{4-[(4-Acetylpiperazin-1-yl)methyl]phenyl}-17-hydroxy-17-(pentafluoroethyl)estra-4,9-dien-3-one]	0.095	0.095	100	100	100	exceptional in vivo properties

Second part, led by results:

IC50 [1] [nM]	IC50 [2] [nM]	Structure (SMILES)	Abortion rate (pregnant rats; daily dose 0.5 mg/kg p.o.) [%]	Abortion rate (pregnant rats; daily dose 1.5 mg/kg p.o.) [%]	Abortion rate (pregnant rats; daily dose 5.0 mg/kg p.o.) [%]	In vivo properties in preclinical tests (pregnant rats; preclinical tests, not further specified)
0.1	0.092	C[C@]12C[C@H](c3ccc(CN4CCN(C(=O)c5ccccc5)CC4)cc3)C3=C4CCC(=O)C=C4CCC3C1CC[C@@]2(O)C(F)(F)C(F)(F)F (stereo partly drawn) [Example 13, (11β,17β)-11-{4-[(4-Benzoylpiperazin-1-yl)methyl]phenyl}-17-hydroxy-17-(Pentafluoroethyl)estra-4,9-dien-3-one]	–	–	–	–
0.094	0.1	CC(C)(C)C(=O)N1CCN(Cc2ccc([C@H]3C[C@@]4(C)C(CC[C@@]4(O)C(F)(F)C(F)(F)F)C4CCC5=CC(=O)CCC5=C43)cc2)CC1 (stereo partly drawn) [Example 14, (11β,17β)-11-(4-{[4-(2,2-Dimethylpropanoyl)piperazin-1-yl]methyl}phenyl)-17-hydroxy-17-(pentafluoroethyl)estra-4,9-dien-3-one]	–	–	–	–
60	53	C[C@]12C[C@H](c3ccc(CN4CCC(C(=O)O)CC4)cc3)C3=C4CCC(=O)C=C4CC[C@H]3[C@@H]1CC[C@@]2(O)C(F)(F)C(F)(F)F [Example 15, 1-{4-[(11β,17β)-17-hydroxy-3-oxo-17-(pentafluoroethyl)estra-4,9-dien-11-yl]benzyl}piperidine-4-carboxylic acid]	–	–	–	–
2.8	2.7	C[C@]12C[C@H](c3ccc(CN4CCCNCC4)cc3)C3=C4CCC(=O)C=C4CCC3C1CC[C@@]2(O)C(F)(F)C(F)(F)F (stereo partly drawn) [Example 16, (11β,17β)-11-[4-(1,4-Diazepan-1-ylmethyl)phenyl]-17-hydroxy-17-(pentafluoroethyl)estra-4,9-dien-3-one]	–	–	–	–
0.57	0.56	CC(=O)N1CCCN(Cc2ccc([C@H]3C[C@@]4(C)C(CC[C@@]4(O)C(F)(F)C(F)(F)F)C4CCC5=CC(=O)CCC5=C43)cc2)CC1 (stereo partly drawn) [Example 17, (11β,17β)-11-{4-[(4-Acetyl-1,4-diazepan-1-yl)methyl]phenyl}-17-hydroxy-17-(pentafluoroethyl)estra-4,9-dien-3-one]	–	–	–	–
